US20240200074A1, “METHOD AND COMPOSITIONS FOR PREVENTING TUMOR DEVELOPMENT AND METASTASIS” (The Administrators of the Tulane Educational Fund, priority 2021, published 2024)
Entries after “also recorded” stand apart in the source; their conditions may differ.

Legend:
KNS = assay: MTT assay with IGU, pediatric GBM cell line; format: cell-based, human
Experimental: (§1) In vitro investigations were carried out using transduced TNBC cell line (MDAMB-231) and patient derived TNBC cells (4IC), pediatric GBM cell line (KNS), and adult GBM cell line (U87) by targeting and suppressing/silencing TRAF3IP2 expression using shRNA Lentiviral vector (TRAF3IP2KD) versus shRNA control (SCR). Using MTT assay, we treated malignant cells with low and high concentrations of IGU to test cell proliferation, viability, and apoptosis compared to vehicle (DMSO) treated cells. It is shown in FIG. 16 that the silencing of TRAF3IP2 enhances the effect of IGU on adult glioblastoma cells (U87), pediatric glioblastoma cells (KNS) and on triple negative cancer cell growth (data not shown).

U87 = assay: MTT assay with IGU, adult GBM cell line; format: cell-based, human
Experimental: as §1

wild type 4IC cells = assay: 4IC tumors in vivo, combination therapy with Paclitaxel and TRAF3IP2-AO; conditions: vs SCR-AO group
Experimental: At first, tumors were induced using wild type 4IC cells using a similar set up described in FIG. 5. After tumor induction, each group was treated with one of the following: SCR-AO (4IC SCR-AO Treated), SCR-AO and Paclitaxel (SCR-AO+Paclitaxel Treated), TRAF3IP2-AO Treated, or TRAF3IP2-AO and Paclitaxel (TRAF3IP2-AO+Paclitaxel Treated).

4IC = assay: Cell cycle profile of 4IC cells in vitro, Paclitaxel and TRAF3IP2 knockdown; format: cell-based, human
From the text: One chemotherapy agent being tested is Paclitaxel. […] Paclitaxel has been previously shown to arrest cell cycle progression at the G2/M phase, resulting in apoptosis.

TNBC cells = assay: Membrane potential assay (mitochondrial) in TNBC cells; format: cell-based, human; conditions: in TRAF3IP2 knockdown cells
BN2 glioblastoma [1] = assay: Glioblastoma PDX (BN2) intracranial model, ICV administration of AO, 2PE imaging and histology; format: in vivo, NSG mice
From the text: For the experiments reported here, the BN2 glioblastoma specimen was used in xenograft studies, and the results are shown in FIG. 14. Glioblastoma was induced by intracranial injection of tumor cells (into the left SSCx of NSG mice; 3×10^5 cells in PBS+Martigel; n=5 mice/group) isolated from primary glioblastoma tissue. At the time of the injection, a chronic cranial window was installed on the left side of the animal's skull that allowed in vivo 2PE imaging of tumor evolution.
For intracerebroventricular (ICV) administration of AO targeting TRAF3IP2 (TRAF3IP2-AO) or control scrambled AO (SCR-AO), a brain cannula was stereotaonctically implanted into the contralateral (right) ventricle (FIG. 14-A). Treatment of mice started on day 10 post-tumor induction with 5 μl every 48 h; 30 nanomolar AO (FIG. 14-B).
Using in vivo 2PE microscopy, angiograms of microvessels in glioblastoma tumors were captured through a cranial window after i.v. injection of fluorescein isothiocyanatedextran for visualization of blood vessels (green signal). Images correspond to day 24 post-tumor induction, after 8 ICV treatments with either SCR-AO (B, I&II; control group), or TRAF3IP2-AO (B IV&V).
Protein expression in residual tumors confirmed that targeting TRAF3IP2 suppresses inflammation, neoangiogenesis, cell cycle and apoptosis (FIG. 14-D).

4IC tumors = assay: Treatment of late stage metastatic TNBC, bioluminescence imaging; format: in vivo, mice; conditions: 100 μg in 50 μl interperitoneally every 48 hours from day 42
Experimental: To see if targeting and silencing TRAF3IP2 eliminates metastatic tumors in advanced metastatic TNBC, PDX model were used. 4IC tumors were induced intramammary into mice using 4IC cells [carrying a luciferase-expressing gene for ‘bioluminescence imaging’. Treatment was initiated in late stage BC indicated by advanced metastasis detectable by luciferase imaging (day 42). Animals were treated with TRAF3IP2-AO (100 μg in 50 μl) administered interperitoneally every 48 hours. Control group received SCR-AO in the same fashion (Data not shown). Representative images showing the extend of metastasis after treatment 1(T1), T5, T10, and T15. The control animals were treated with SCR-AO only on T1 and were euthanized due to the increasing tumor growth.

TRAF3IP2 = assay: Post-mortem Western blotting and immunohistochemical analysis of residual TNBC tumor of AO treated animals; format: in vivo
From the text: Post-mortem analysis of residual tumor confirmed that targeting TRAF3IP2 suppresses inflammation, angiogenesis, cell cycle and apoptosis, and genes involved in exosome release (FIG. 7(A)).

TNBC [2] = assay: Detection of micrometastasis using PCR in TNBC metastatic niches of AO treated animals; format: in vivo, mice; conditions: α-satellite DNA of chromosome 17
Experimental: FIG. 4E. Detection of micrometastasis using PCR. Key TNBC metastatic niches were analyzed for micrometastasis using primers directed towards a human-specific alpha-satellite DNA sequence of the centromere region of human chromosome 17.
Moreover, PCR using primers that specifically detect human-specific a-satellite DNA sequence of the centromere region of human chromosome 17 indicated no micrometastasis in the treated group.

BN2 glioblastoma [3] = assay: Detection of intracranial dissemination by PCR of human-specific α-satellite DNA in brain biopsies; format: in vivo, NSG mice; conditions: compared to SCR-AO treated group
From the text: To detect intracranial micrometastasis, the animals in experiments detailed in FIG. 14 were biopsied from adjacent sections of brain. The biopsy specimen were subjected to PCR assay using primers that specifically detect human-specific a-satellite DNA sequence of the centromere region of chromosome 17. Areas evaluated include the left parietal lobe, at a distance of 2 mm from the focus of initial tumor inoculation (Area I) and the right SSCx equidistant from the interhemispheric fissure relative to the focus of initial tumor inoculation (Area II) (FIG. 15).

TNBC [4] = assay: TNBC treated in vivo with antisense oligonucleotide, immunohistochemical analysis of angiogenesis
From the text: Also, it is notable that TRAF3IP2 induces the expression and release of pro-angiogenic mediators into the TME, activating endothelial cells to promote neo-vascularization. TRAF3IP2 silencing.

## CS(=O)(=O)Nc1cc2occ(NC=O)c(=O)c2cc1Oc1ccccc1 [IGU, N-[7-(methanesulfonamido)-4-oxo-6-phenoxychromen-3-yl]formamide]
KNS; 24 hours, C2, KNS control
  cell viability: about 65%
KNS; 24 hours, C2, KNSTRAF3IP2KD
  cell viability: about 55%
KNS; 48 hours, C1, KNS control
  cell viability: about 55%
KNS; 48 hours, C1, KNSTRAF3IP2KD
  cell viability: about 45%
KNS; 72 hours, C2, KNS control
  cell viability: about 40%
KNS; 72 hours, C2, cells not named (KNSTRAF3IP2KD implied)
  cell viability: about 25%
U87; 48 hours, C2 (224.823 mM IGU), U87TRAF3IP2KD
  cell viability: about 40%
U87; 48 hours, C2 (224.823 mM IGU), control group U87
  cell viability: about 50%
U87; 72 hours, C2, U87TRAF3IP2KD
  cell viability: about 20%
U87; 72 hours, C2, control group U87
  cell viability: about 40%

## CC(=O)O[C@H]1C(=O)[C@@]2(C)[C@H]([C@H](OC(=O)c3ccccc3)[C@]3(O)C[C@H](OC(=O)[C@H](O)[C@@H](NC(=O)c4ccccc4)c4ccccc4)C(C)=C1C3(C)C)[C@]1(OC(C)=O)CO[C@@H]1C[C@@H]2O [Paclitaxel, reference compound]
Wild type 4IC cells
  reduction of tumor volume / tumor size: 42%
4IC
  increase of proportion of cells in G2: 23%

## FCCP
TNBC cells
  mitochondrial membrane potential on addition of FCCP: does not decrease mitochondrial membrane potential

## TRAF3IP2-AO: anti-sense oligonucleotide targeting TRAF3IP2, SEQ ID NO: 2 mG*mG*mU*mG*mG*G*C*A*C*A*T*G*C*T*C*mC*mU*mU*mC*mU
Wild type 4IC cells
  reduction of tumor volume / tumor size: 78%
BN2 glioblastoma [1]; ICV, 5 μl every 48 h, 30 nanomolar AO from day 10, vs. SCR-AO
  tumor growth / tumor size: reduced tumor growth; also recorded: marked reduction in tumor size; also recorded: significantly less growth and smaller volumes
BN2 glioblastoma [1]; compared to SCR-AO treated
  blood vessel density / vascularization: lower blood vessel density/angiogenesis; also recorded: less vascularization
BN2 glioblastoma [1]; mouse, in vivo
  glioblastoma cells (human cells) in residual tumor tissue, staining for human-specific mitochondria: significantly less number
  infiltrating cells in subcortical areas (histology of brain sections): significantly smaller number of infiltrating cells
4IC tumors
  luciferase signal (metastasis): marked reduction of luciferase signal, reaching undetectable levels after 15 treatments
TRAF3IP2; treated group vs. SCR-AO
  immunohistochemical levels of TRAF3IP2, IL8 and Caspase 3 in tumor: decreased levels of TRAF3IP2 and IL8 and increased Caspase 3
TRAF3IP2; vs. SCR-AO
  levels of TRAF3IP2, IL8, IL1b, and VEGF in tumors (protein expression analysis): significantly lower levels
TNBC [2]
  micrometastasis: human-specific DNA sequence in most common metastatic sites: No human specific DNA sequence was detected
BN2 glioblastoma [3]
  intracranial metastasis at Area I (left parietal lobe) and Area II (right SSCx): markedly reduced metastasis at both sites
TNBC [4]; TNBC in vivo
  tumor growth: reduced tumor growth
TNBC [4]; compared to SCR-AO treated tumors
  blood vessel density/angiogenesis (CD31 staining): lower blood vessel density/angiogenesis
TNBC [4]; in vivo
  TNBC cells (human cells) in residual tumor tissue, staining for human-specific mitochondria: significantly less number
